Results published in patent publication US20040005648A1, “PYK2 related products and methods” (Sugen, Inc., priority 1994, published 2004).
“Also recorded” adds a separate entry of the source. Read-outs that look alike come from different tables or passages of the source.

How the values were obtained:
[1] = test system: Shc; test: Tyrosine phosphorylation of Shc in stimulated PC12 cells (anti-Shc immunoprecipitation, anti-phosphotyrosine immunoblot); type: cell-based, rat; conditions: for effect on carbachol induced tyrosine phosphorylation of Shc: antagonist
Method: Tyrosine phosphorylation of Shc in response to bradykinin, carbachol, PMA and other stimuli was also measured. Quiescent PC12 cells were stimulated for 5 min at 37° C. with bradykinin (1AM), carbachol (1 mM), KC1 (75 mM), PMA (1.6pM), NGF (100 ng/ml), or left unstimulated (−). The cells were also stimulated with carbachol (1 mM) or potassium chloride (75 mM) in the presence of 3 mM EGTA. Stimulations with DMPP (100 μM) or muscarine (1 mM) were preformed under the same conditions. […] The Shc proteins were immunoprecipitated with anti-Shc antibodies, the immunoprecipitates were resolved by SDS-PAGE (8%1, transferred to nitrocellulose and immunoblotted with anti-phosphotyrosine antibodies.

[2] = test system: PYK2; test: Tyrosine phosphorylation of PYK2 in stimulated PC12 cells (anti-PYK2 immunoprecipitation, anti-phosphotyrosine immunoblot); type: cell-based, rat
[3] = test system: PYK-2; test: Tyrosine phosphorylation of PYK-2 in NIH3T3 cell lines that overexpress PYK-2; type: cell-based, mouse; conditions: NIH3T3 cells overexpressing PYK-2 / PYK-2-HA; TPA 6 μM, 15 min at 37° C.
Method: Stable cell lines of NIH3T3 that overexpress PYK2 were established by contransfection of PYK2 subcloned into pLSV together with pSV2neo utilizing lipofectamine reagent (GIBCO BRL). Following transfection the cells were grown in Dulbecco's modified Eagle's medium containing 10% fetal bovine serum and 1 mg/ml G418. Transient transfections into 293 cells were performed by using the calcium phosphate technique (*).
The PYK-2 cDNA cloned in PLSV was cotransfected with pSV2neo into PC12 cells and NIH3T3 in order to establish stable cell lines. G418 resistant colonies were screened by immunoprecipitating and immunoblotting.
NIH3T3 cell lines were established that overexpress the PYK-2 and the PYK-2-HA protein. […] The level of phosphorylation is not so high.

[4] = test system: Kv1.2 channel; conditions: after 20 min incubation; as previously shown (Huang et al.); cited from earlier work
[5] = test system: Kv1.2 potassium channel; test: Tyrosine phosphorylation of Kv1.2 potassium channel in 293 cells coexpressing PYK2; type: cell-based, human; conditions: 293 cells coexpressing Kv1.2-HA and PYK2; PMA 1.6 μM, calcium ionophore 6 μM
[6] = test system: PYK2; test: Tyrosine phosphorylation of PYK2 in transiently transfected 293 cells; type: cell-based, human; conditions: PMA 1.6 μM, calcium ionophore 6 μM
Method: We examined the possibility whether PYK2 can tyrosine phosphorylate the Kv1.2 channel and regulate its function. In order to test this possibility, we expressed in 293 cells the Kv1.2 protein, Kv1.2 together with PYK2, and as a control Kv1.2 with a kinase negative PYK2 mutant (PKN) or with the protein tyrosine kinase Fak. The cells were grown for 24 hours in medium containing 0.2% serum and then stimulated with PMA (1.6 μM), calcium ionophore (6 μM), or left unstimulated.
Embryonic human kidney 293 cells were transiently transfected with different combinations of mammalian expression vectors which direct the synthesis of Kv1.2-HA, PYK2, a kinase negative PYK2 (PKN) or the protein tyrosine kinase Fak. The cells were grown for 24 h in the presence of 0.2% serum and then either stimulated with PMA (1.6 μM, 10 min at 37° C.), the calcium ionophore A23187 (6 μM, 10 min at 37° C.) or left unstimulated (−).
Tyrosine phosphorylation of each protein was analysed following immunoprecipitation and immunoblotting with anti-phosphotyrosine antibodies. The expression of each protein was determined by immunoblot analysis of total cell lysates from each transfection with anti-PYK2, anti-HA or anti-Fak antibodies.

[7] = test system: Kv1.2 channel; test: Kv1.2 currents in microinjected Xenopus oocytes, two microelectrode voltage-clamp; type: cell-based, Xenopus laevis; conditions: for inhibition of outward current: 8 min after addition of 100 nM PMA
Method: In vitro capped RNA transcripts of Kv1.2, PYK2 and PKN were synthesized from linearized plasmids DNA templates utilizing the mMESSAGE MMACHINE kit (Ambion), following the supplier's protocols. The products of the transcription reaction (cRNAs) were diluted in RNAse-free water and stored at −70° C. Expression of the RNAs was done by injection of 50nl of RNA into defolliculated stage V and VI oocytes from Xenopus laevis (Iverson et al., J. Neurosc. 10, 2903-2916, 1990). The injected oocytes were incubated for 2-3 days at 20° C. in L15 solution (1:2 dilution of Gibco's Leibovitz L15 medum in H20, with 50U/ml nystatin, 0.1 mg/ml gentamycin, 30 mM HEPES buffer, pH 7.3-7.4, filtered through a […] membrane). Electrophysiological Recording and analysis. Ionic currents were recorded with a two microelectrode voltage-clamp as described (Iverson et al., suDra). The current were low-pass filtered KHz using an 8-pole Bessel filter and stored in a 80286 microcomputer using the pclamp acquisition system (Axon Instruments). The data was analyzed with the clamp fit pro-rams of the pCIamp system (Axon Instruments). All recording were performed at room temperature ([…]). The recording chamber was continually perfused with recording solution. To avoid contamination of the oocyte by Ca+^2-activated Cl^− currents low Cl^− recording solution was used (96 mM Na+, glutamate, 2 mM K^+ glutamate, 0.5 mM CaCl2, 5 mM MgCl2, 5 mM HEPES buffer). The K^+ currents were elicited in depolarizinc, steps from −100 to +40 mv in 10 mV increments every 15 seconds.
Kv1.2 currents from oocytes microinjected with either Kv1.2 mRNA, Kv1.2 and PYK2 mRNAs, or Kv1.2 and a kinase negative mutant of PYK2 mRNAs (PKN). Currents were elicited in response to depolarizing steps from −100 to +30 mV increments from a holding potential of −110 mV. Representative traces of Kv1.2 channels before and after bath application of 100 nM PMA at the annotated time (8 and 20 minutes) in the same cell.
Suppression of Kv1.2 currents in response to PMA is blocked by a kinase negative PYK2 mutant (PKN). […]

[8] = PC12 cells, agent alone, 37° C., b373: TPA 15 min, bradykinin 1 μM 1 min, A23187 2 μM 15 min, KCl 75 mM

**Q.** With `C[C@@H]1O[C@H](C[N+](C)(C)C)C[C@H]1O` [muscarine] as the molecule, how does the “tyrosine phosphorylation of Shc in response to the agent” value [1] read?
**A.** Its value is “had no effect”.

**Q.** Which “tyrosine phosphorylation of PYK2 in response to the agent” value [2, 8] does the source give for “Pertusis toxin: toxin known to positively regulate G-coupled receptor signalling” here?
**A.** Its value is “didn't cause any response alone”.

**Q.** What about the “effect on the PYK-2 tyrosine phosphorylation response to TPA / bradykinin” value ([2]; PC12 cells, agent in combination with TPA or bradykinin) of the same molecule?
**A.** The value was “induced the response of TPA and bradykinin”.

**Q.** For `C[N+](C)(C)CCOC(N)=O` [carbachol], which “time of maximum tyrosine phosphorylation of Shc” value ([1]; transient, followed by a rapid decline) is on record?
**A.** The value was “one”.

**Q.** And the “time after applying the agent at which PYK2 became phosphorylated on tyrosine residues” value ([2]; PC12 cells)?
**A.** Its value is 5 s.

**Q.** What about the “tyrosine phosphorylation of PYK2 in response to the agent” value [2, 8] of the same molecule?
**A.** Its value is “induces strong, tyrosine phosphorylation of PYK2”.

**Q.** For PDGF, which “tyrosine phosphorylation of PYK-2 in response to the agent” value [3] is on record?
**A.** The value was “undergoes tyrosine phosphorylation”.

**Q.** Which “tyrosine phosphorylation of PYK-2 in response to the agent” value [3] does the source give for aFGF: growth factor stimulus here?
**A.** The value was “undergoes tyrosine phosphorylation”.

**Q.** Which “effect on agonist (carbachol) induced tyrosine phosphorylation of PYK2” value ([2]; PC12 cells, elimination of extracellular calcium, EGTA 3 mM) does the source give for `O=C(O)CN(CCOCCOCCN(CC(=O)O)CC(=O)O)CC(=O)O` [EGTA, ethyleneglycol-bis (P-aminoethyl ether)-N,N,N′N′-teraacetic acid] here?
**A.** Its value is “completely blocked agonist induced tyrosine phosphorylation of PYK2”.

**Q.** What does the source list for Cholera toxin?
**A.** effect on the PYK-2 tyrosine phosphorylation response to TPA / bradykinin [2]: gave higher signal in combination with TPA and bradykinin; tyrosine phosphorylation of PYK2 in response to the agent [2]: didn't cause phosphorylation of PYK-2 alone

**Q.** For `CNC1(C)C2CCC(C2)C1(C)C` (stereo not drawn) [mecamylamine], which “effect on carbachol induced tyrosine phosphorylation of Shc” value [1] is on record?
**A.** The value was “blocked the effect of carbachol”.

**Q.** For `C[N+]1(C)CCN(c2ccccc2)CC1.[I-]` [DMPP, 1,1-dimethyl-4-phenyl piperazinium iodide], which “tyrosine phosphorylation of Shc in response to the agent” value [1] is on record?
**A.** Its value is “induced phosphorylation of Shc”.

**Q.** Which “inhibition of Kv1.2 currents” value [4] does the source give for `CCCCCCCCCCCCCC(=O)O[C@@H]1[C@@H](C)[C@@]2(O)[C@@H](C=C(CO)C[C@]3(O)C(=O)C(C)=C[C@@H]23)[C@@H]2C(C)(C)[C@]12OC(C)=O` [PMA, phorbol 12-myristate 13-acetate] here?
**A.** Its value is 80-90%.

**Q.** What about the “tyrosine phosphorylation of Kv1.2” value [5] of the same molecule?
**A.** Its value is “enhanced”.

**Q.** And the “tyrosine phosphorylation of PYK2 in response to the agent” value [6]?
**A.** The value was “induced tyrosine phosphorylation”.

**Q.** What about the “effect of prolonged PMA treatment (down-regulation of PKC) on the agent-stimulated tyrosine phosphorylation of PYK2” value ([2]; PC12 cells pretreated with 100 nM PMA for 12 h) of the same molecule?
**A.** Its value is “completely abolished the effect of PMA”.

**Q.** And the “tyrosine phosphorylation of PYK2 in response to the agent” value [2, 8]?
**A.** Its value is “induced tyrosine phosphorylation of PYK2”.

**Q.** What about the “tyrosine phosphorylation of PYK2 in response to the agent” value ([2]; PC12 cells, agent alone, 37° C., b373: TPA 15 min, bradykinin 1 μM 1 min, A23187 2 μM 15 min, KCl 75 mM, listed as TPA) of the same molecule?
**A.** The value was “undergoes tyrosine phosphorylation”.

**Q.** What about the “inhibition of outward current” value ([7]; oocytes coexpressing Kv1.2 and PYK2) of the same molecule?
**A.** Its value is 95%.

**Q.** And the “inhibition of outward current” value ([7]; oocytes expressing Kv1.2 alone)?
**A.** The value was 25%.

**Q.** And the “effect on Kv1.2 currents” value ([7]; oocytes expressing Kv1.2)?
**A.** Its value is “caused inhibition of Kv1.2 currents”.

**Q.** For `CN1[C@@H]2CC[C@H]1C[C@@H](OC(=O)C(CO)c1ccccc1)C2` (stereo partly drawn) [atropine], which “effect on carbachol induced tyrosine phosphorylation of Shc” value [1] is on record?
**A.** The value was “had no effect”.

**Q.** Which “tyrosine phosphorylation of Kv1.2” value [5] does the source give for `CNc1ccc2oc(C[C@H]3O[C@@]4(CC[C@H]3C)O[C@H]([C@H](C)C(=O)c3ccc[nH]3)[C@H](C)C[C@H]4C)nc2c1C(=O)O` [calcium ionophore A23187] here?
**A.** The value was “enhanced”.

**Q.** And the “tyrosine phosphorylation of PYK2 in response to the agent” value [6]?
**A.** The value was “induced a weaker response”.

**Q.** What about the “tyrosine phosphorylation of PYK2 in response to the agent” value [2, 8] of the same molecule?
**A.** Its value is “undergoes tyrosine phosphorylation; also recorded: PYK2 is phosphorylated on tyrosine residues”.

**Q.** Which “tyrosine phosphorylation of PYK2 in response to the agent” value [2, 8] does the source give for `[Cl-].[K+]` [KCl, potassium chloride] here?
**A.** The value was “induces rapid tyrosine phosphorylation of PYK2”.
